Key:
C57BLKS db/db mice [1] = assay: Kidney histopathology (mesangial expansion) in diabetic db/db mice; type: in vivo, mouse; conditions: treated vs. untreated (severe mesangial expansion in untreated)
Description: (§1) The C57BLKS db/db mice is a rodent model of type II diabetes mellitus. A LepR^db (db) mutation on chromosome 4 (G→T point mutation) has been identified in the leptin receptor gene. This mutation generates a new donor splice site, leading to prematurely termination of the intracellular domain of leptin receptor and lack of leptin signal transduction. C57BLKS db/db strain is more susceptible to the development of diabetic nephropathy than the C57BL/6J db/db strain. Animals are characterized by obesity, insulin resistance, diabetes and diabetic nephropathy (DN). […] Pathologic changes include mesangial matrix expansion (>50% increase in the majority of glomeruli) and GBM thickening >25%, absence of GBM electron dense material by EM, arteriolar hyalinosis (any degree) and tubulo-interstitial fibrosis.
(§2) Cyclooxygenase-1 (COX-1) is also abundantly expressed in the kidney, however its role in health and disease remains poorly defined. […] Diabetic mice were provide the COX-1 inhibitor for 6 months, while control diabetic mice given vehicle alone. […] Glomerular filtration rate was also determined using FITC-inulin clearance.

C57BLKS db/db mice [2] = assay: Body weight gain, blood sugar and glycosylated hemoglobin in diabetic db/db mice; conditions: diabetic db/db mice vs. vehicle treated controls, 6 months
Description: as §1
Inhibitor was given for 6 months, while the control diabetic mice were given vehicle alone (n=8 per group). Blood samples were drawn for analysis of glucose and glycosylated hemoglobin (HbA1c) monthly. The urine samples were collected monthly and albumin/creatinine ratio was determined by enzyme linked immunosorbent assays (Exocell Inc, PA, USA). Glomerular filtration rate (GFR) was determined using FITC-inulin clearance based on plasma elimination rate following single bolus intravenous injection.
as §2

With COc1ccc(-n2nc(C(F)(F)F)cc2-c2ccc(Cl)cc2)cc1 [SC8560] the “mesangial expansion (histopathology)” value (C57BLKS db/db mice [1]) was “less pronounced”, the “effect on Hb1C” value (C57BLKS db/db mice [2]) was “did not affect” and the “effect on blood sugar” value (C57BLKS db/db mice [2]) was “did not affect”. The “effect on body weight gain” value (C57BLKS db/db mice [2]) was “did not affect”.

Source: patent publication US20050143356A1, “Selective inhibition of cyclooxygenase 1 in the treatment of diabetic nephropathy” (Vanderbilt University, priority 2003, published 2005)
